From US7223766B2, “Bi-cyclic pyrimidine inhibitors of TGFβ” (Scios, Inc., priority 2003, dated 2007)

How the values were obtained:
P-Smad 2/3 = test: Bleomycin-induced SMAD phosphorylation in rats, phospho SMAD 2/3 ELISA of lung tissue; assay type: in vivo, rat; conditions: male Sprague-Dawley rats, intratracheal bleomycin, oral 40 mg/kg bid days 1 to 5, versus control group
Protocol: The effect of TGF-beta inhibitors on bleomycin-induced SMAD phosphorylation was studied in male Sprague-Dawley rats purchased from Charles River. Rats were housed in groups of two in the animal facility and provided with filtered air at a constant temperature and humidity. The rats were allowed to acclimate to the new environment for one week before all treatments. A 12:12 hour light-dark cycle was maintained, and the animals had free access to food and water.
To induce SMAD activation, rats were intubated with 0.5 ml of saline or 0.5 ml of 1.0 unit/ml of bleomycin by intratracheal injection under anesthesia. The anesthetic solution used was a mixture of 0.4 ml of ketamine (100 mg/ml) and 0.25 ml of xylazine (20 mg/ml) at a dose of 1.3 ml/kg.
On days 1 to 5, treated rats were weighed and orally dosed with compound 35 two-times a day at 40 mg/kg.
On Day 5, after dosing, rats were sacrificed by an overdose of the ketamine/xylazine cocktail, and then the trachea, heart and lungs of the animals were removed en bloc. All lung lobes were collected, dissected and stored in −80° C. for phospo SMAD ELISA assays.
To evaluate the effect of SMAD activation (an indicia of fibrosis), a phospho SMAD 2/3 ELISA assay was performed using the lung tissue of the sacrificed animals.

TGF R1 kinase = target: T1, TGF R1 kinase (Homo sapiens, UniProt P36897); test: TGF-β inhibition assay: phosphorylation of the substrate casein by TGF R1 kinase; assay type: biochemical; conditions: table names no assay; casein assay of Example 2: 2.5 μM ATP, 100 μM casein, 6.4 nM TGF R1 kinase
T1 sequence (P36897 34-503): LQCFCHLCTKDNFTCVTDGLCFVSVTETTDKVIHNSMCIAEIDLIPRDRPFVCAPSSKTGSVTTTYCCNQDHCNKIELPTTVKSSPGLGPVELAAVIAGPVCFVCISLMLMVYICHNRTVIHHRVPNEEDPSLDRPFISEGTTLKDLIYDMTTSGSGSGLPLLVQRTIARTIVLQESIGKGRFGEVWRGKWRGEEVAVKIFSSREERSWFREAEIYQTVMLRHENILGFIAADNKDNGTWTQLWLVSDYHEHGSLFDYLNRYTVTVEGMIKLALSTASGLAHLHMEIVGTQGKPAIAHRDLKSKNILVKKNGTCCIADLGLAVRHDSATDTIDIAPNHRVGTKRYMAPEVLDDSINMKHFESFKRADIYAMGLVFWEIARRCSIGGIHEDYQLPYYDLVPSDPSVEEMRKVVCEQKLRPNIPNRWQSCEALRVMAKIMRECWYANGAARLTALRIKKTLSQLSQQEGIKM
Protocol: Invention compounds were tested for their abilities to inhibit the phosphorylation of the substrate casein. The assay was conducted as follows: Compound dilutions and reagents were prepared fresh daily. Compounds were diluted from DMSO stock solutions to 2 times the desired assay concentration, keeping final DMSO concentration in the assay less than or equal to 1%. TGF RI kinase was diluted to 4 times the desired assay concentration in buffer and DTT. ATP and casein were diluted into 4× reaction buffer, and gamma-^32P-ATP was added at 50 μCi/mL.
The assay was performed by adding 10 μl of the enzyme to 20 μl of the compound solution. The reaction was initiated by the addition of 10 μl of the casein/ATP mix. Final assay conditions included 2.5 μM ATP, 100 μM casein, 6.4 nM TGF R1 kinase, and […] in 20 mM Tris buffer, pH 7.5. The reactions were incubated at room temperature for 45 minutes. The reactions were then stopped by transferring 23 μl of reaction mixture onto a phosphocellulose 96-well filter plate, which had been pre-wetted with 15 μl of 0.25M H3PO4 per well. After 5 minutes, the wells were washed 4× with 75 mM H3PO4 and once with 95% ethanol. The plate was dried, scintillation cocktail was added to each well, and the wells were counted in a Packard TopCount microplate scintillation counter. The ability of a compound to inhibit the enzyme was determined by comparing the counts obtained in the presence of the compound to those of the positive control (in the absence of compound) and the negative control (in the absence of enzyme).
In both of the assays referenced above, IC50 values can be determined with curve-fitting plots available with common software packages. Approximate IC50 values can be calculated using formula: IC50 (app)=A×i/(1−A) where A=fractional activity and i=total inhibitor concentration.

IC50 (TGF R1 kinase) [nM]	Compound	bleomycin-induced phosphorylation of P-Smad 2/3 in the lung (P-Smad 2/3; 40 mg/kg)	bleomycin-induced phosphorylation of P-Smad 2/3 in the lung (P-Smad 2/3; listed as compound 35, 40 mg/kg)
6250	CC1(C)Cc2nc(-c3cc(Cl)ccc3F)nc(Nc3ccncc3C(F)(F)F)c2C1 [Compound 61]		
267	Cc1noc2nc(-c3cc(Cl)ccc3F)nc(Nc3ccncc3)c12 [Compound 8]		

The remaining lines, values behind:

Compound	IC50 (TGF R1 kinase) [nM]	bleomycin-induced phosphorylation of P-Smad 2/3 in the lung (P-Smad 2/3; 40 mg/kg)	bleomycin-induced phosphorylation of P-Smad 2/3 in the lung (P-Smad 2/3; listed as compound 35, 40 mg/kg)
CNC(=O)c1cnccc1Nc1nc(-c2cc(Cl)ccc2F)nc2c1CCC2 [Compound 35]	49	significantly reduce	reduce
O=C(O)c1cnccc1Nc1nc(-c2cc(Cl)ccc2F)nc2c1CCCC2 [Compound 50, 4-[2-(5-Chloro-2-fluorophenyl)-5,6,7,8-tetrahydroquinazolin-4-ylamino]-nicotinic acid]	4080		
Cc1noc2nc(-c3cc(Br)ccc3F)nc(Nc3ccncc3)c12 [Compound 6]	270		
Cc1cnccc1Nc1nc(-c2cc(Cl)ccc2F)nc2c1CC(C)(C)C2 [Compound 60, [2-(5-Chloro-2-fluoro-phenyl)-6,6-dimethyl-6.7-dihydro-5H-cyclopentapyrimidin-4-yl]-(3-methyl-pyridin-4-yl)-amine]	2420		
